Test results published in PMC2898170 (Neuropsychiatric Disease and Treatment, 2010).

Legend:
[1] = molecular target: T1, human peptide transporter-1 (PEPT1) (Homo sapiens, UniProt P46059); test: inhibition of radiolabeled Gly-Sar uptake in transfected CHO cells; format: cell-based
T1 sequence (P46059 1-708): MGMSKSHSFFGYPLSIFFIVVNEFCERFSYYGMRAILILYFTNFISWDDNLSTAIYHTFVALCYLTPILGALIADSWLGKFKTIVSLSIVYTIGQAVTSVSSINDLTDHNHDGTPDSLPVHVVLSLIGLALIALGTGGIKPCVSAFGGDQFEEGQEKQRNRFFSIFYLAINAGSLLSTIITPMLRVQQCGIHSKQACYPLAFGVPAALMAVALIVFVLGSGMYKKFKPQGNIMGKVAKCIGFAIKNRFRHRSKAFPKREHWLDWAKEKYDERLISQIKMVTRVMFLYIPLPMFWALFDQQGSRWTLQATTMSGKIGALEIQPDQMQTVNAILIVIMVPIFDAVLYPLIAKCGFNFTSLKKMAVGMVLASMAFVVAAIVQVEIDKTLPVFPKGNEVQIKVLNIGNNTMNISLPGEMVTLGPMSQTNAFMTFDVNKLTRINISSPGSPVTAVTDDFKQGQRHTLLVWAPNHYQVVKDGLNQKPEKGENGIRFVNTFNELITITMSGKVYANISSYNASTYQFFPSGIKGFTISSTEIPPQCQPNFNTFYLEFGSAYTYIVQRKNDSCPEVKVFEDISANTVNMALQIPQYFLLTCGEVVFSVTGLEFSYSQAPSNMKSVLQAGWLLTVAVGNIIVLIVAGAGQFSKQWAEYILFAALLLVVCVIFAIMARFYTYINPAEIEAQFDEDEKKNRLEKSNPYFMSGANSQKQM

PEPT2 = molecular target: T2, PEPT2 (Homo sapiens, UniProt Q16348); test: as above; format: cell-based
T2 sequence (Q16348 1-729): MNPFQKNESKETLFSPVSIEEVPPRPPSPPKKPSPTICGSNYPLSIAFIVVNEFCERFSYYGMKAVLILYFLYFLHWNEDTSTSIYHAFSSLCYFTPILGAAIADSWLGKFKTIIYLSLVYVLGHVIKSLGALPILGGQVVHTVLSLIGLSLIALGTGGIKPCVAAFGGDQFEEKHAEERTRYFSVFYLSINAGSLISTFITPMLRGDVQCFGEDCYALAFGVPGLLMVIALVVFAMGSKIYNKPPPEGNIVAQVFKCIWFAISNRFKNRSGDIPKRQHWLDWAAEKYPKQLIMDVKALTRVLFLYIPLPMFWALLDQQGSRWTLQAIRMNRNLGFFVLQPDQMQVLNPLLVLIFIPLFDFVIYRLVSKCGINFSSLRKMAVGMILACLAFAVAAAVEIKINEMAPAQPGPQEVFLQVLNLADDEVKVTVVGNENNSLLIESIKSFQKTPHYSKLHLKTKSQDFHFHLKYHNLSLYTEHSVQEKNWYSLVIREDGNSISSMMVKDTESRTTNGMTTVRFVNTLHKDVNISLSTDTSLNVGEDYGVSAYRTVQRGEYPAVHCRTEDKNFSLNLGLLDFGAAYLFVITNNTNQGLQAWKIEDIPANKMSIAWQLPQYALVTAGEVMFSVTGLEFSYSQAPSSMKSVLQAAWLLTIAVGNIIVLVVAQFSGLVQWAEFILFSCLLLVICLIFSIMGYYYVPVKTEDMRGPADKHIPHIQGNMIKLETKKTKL

Structure (SMILES): C[C@@H](Cc1ccccc1)NC(=O)[C@@H](N)CCCCN [lisdexamfetamine dimesylate]
- IC50 [1]: ~4000 µM
- IC50 (PEPT2): 246 µM
